Results from patent publication US20230364273A1, “AGENT FOR DETECTING INTERACTION BETWEEN TISSUES AND ORGANS” (HAMAMATSU PHOTONICS K.K., priority 2020, published 2023).

Tested on: mitochondrial complex I (MC-I)
Assay: PET measurement of the amount (SUV) of MC-I probe accumulated in each tissue and organ of type 2 diabetes model rats (Test Examples 1 and 2)
Assay type: in vivo
Conditions: brain, heart, brown adipocytes, pancreas, liver, kidneys; 5, 8, 16, 26 weeks of age; i.v. about 20 MBq; except brown adipocytes and kidneys at 5 weeks of age (FIG. 4)
Source text: Male Zucker Leprfa/Leprfa rats (hereinafter also referred to as “fatty rats”) that develop pathological conditions similar to type 2 diabetes of human adults and male Zucker Leprfa/+ rats (hereinafter also referred to as “lean rats”) as controls thereof were purchased from Charles River Laboratories Japan, Inc., and used for PET measurement at 5, 8, 16, and 26 weeks of age, and the amount of [^18F]BCPP-BF accumulated in each tissue and organ (brain, heart, kidneys, liver, and brown adipocytes (brown adipose tissue)) was measured.
The rats were anesthetized with isoflurane and fixed in a gantry of an animal PET camera (SHR-38000, manufactured by Hamamatsu Photonics K.K.). […]
After the completion of the PET measurement, a region of interest was set on the pancreas identified by an integrated PET image 40 to 60 minutes after the administration of D-[^11C]MT, and the amount of [^18F]BCPP-BF accumulated in the region of interest was calculated. Subsequently, the calculated accumulation amount was normalized by the amount of radioactivity administered and the body weight of each individual and defined as an amount (amount (SUV) of radioactivity accumulated) of [^18F]BCPP-BF accumulated in the pancreas. […] The amount (SUV) of radioactivity accumulated in the brain was calculated by excising the brains from the rats immediately after the PET measurement. […]

Compound: CC(C)(C)n1ncc(OCc2ccc(OCCCC[18F])nc2)c(Cl)c1=O [[^18F]BCPP-BF]
- accumulation amount (SUV) in each tissue and organ, fatty rats versus lean rats: significantly lower
